Test results taken from patent publication US9388147B2 (Receptos, Inc., priority 2009, dated 2016).
Where a name gives a salt, the structure may show the parent alone.

What was measured:
[1] = system: CD4 or CD8 positive T cells; test: Lymphopenia in mice; assay type: in vivo; settings: female C57BL6 mice, 1 mg/kg oral gavage, area under the effect curve over 24 h
Protocol: In mice: Female C57BL6 mice (Simonsen Laboratories, Gilroy Calif.) were housed in an ALAAC accredited facility and the research was approved by the facilities Institutional Animal Care and Use Committee (IACUC). The animals were acclimated to the laboratory for at least 5 days prior to initiation of experiments. Mice (n=3/compound/time-point) were dosed by oral gavage with 1 mg/kg compound formulated in a vehicle consisting of 5% DMSO/5% Tween 20 and 90% 0.1N HCl. Control mice were dosed PO with the vehicle. Terminal whole blood samples were collected from isoflurane anesthetized mice by cardiac puncture into EDTA. Whole blood was incubated with rat anti-mouse CD16/CD32 (Mouse BD Fc Block, #553141), PE-Rat anti-mouse CD45R/B220 (BD #553089), APC-Cy7-Rat anti-mouse CD8a (BD #557654), and Alexa Fluor647-Rat anti-mouse CD4 (BD #557681) for 30 min on ice. Red blood cells were lysed using BD Pharm Lyse Lysing buffer (#555899) and white blood cells were analyzed by FACS. Lymphopenia was expressed as the % of white blood cells that were CD4 or CD8 positive T cells. The overall lymphopenia response over 24 h was estimated by calculating the area under the effect curve (AUEC) using the linear trapezoidal rule.

[2] = system: peripheral T-cell counts; test: Lymphopenia in rats, 3-5 day multiple dose regimen; assay type: in vivo, rat; settings: female rats, oral, 24 h after final dose of a 3-5 day multiple dose regimen
Protocol: In rats: Female rats (Simonsen Laboratories, Gilroy Calif.) were housed in an ALAAC accredited facility and the research was approved by the facilities Institutional Animal Care and Use Committee (IACUC). The animals were acclimated to the laboratory for at least 5 days prior to initiation of experiments. Rats (n=3/compound/time-point) were dosed by oral gavage with 1 mg/kg compound formulated in a vehicle consisting of 5% DMS0/5% Tween 20 and 90% 0.1N HCL. Control rats were dosed PO with the vehicle. Whole blood was collected from isoflurane anesthetized rats via the retro-orbital sinus and terminal samples were collected by cardiac puncture into EDTA. Whole blood was incubated with mouse anti-rat CD32 (BD #550271), PE-mouse anti-rat CD45R/B220 (BD #554881), PECy5-mouse anti-rat CD4 (BD #554839), and APC-mouse anti-rat CD8a (eBioscience #17-0084) for 30 minutes on ice. Red blood cells were lysed using BD Pharm Lyse Lysing buffer (#555899) and white blood cells were analyzed with a BD FACSArray. Lymphopenia was expressed as the % of white blood cells that were CD4 or CD8 positive T cells. The overall lymphopenia response over 24 h was estimated by calculating the area under the effect curve (AUEC) using the linear trapezoidal rule.
The compounds listed in Table 6 were formulated as suspensions in a vehicle consisting of 0.5% carboxymethyl cellulose (Acros Organics) in purified water (pH adjusted to ˜2.2 with hydrochloric acid). The same formulation was used in the rat lymphopenia and toxicology studies described below. The concentration of each compound in suspension was verified to be within ±10% of the target concentration by HPLC-UV.
Prior to the conduct of toxicology studies, the effect of three to five daily doses of each compound on peripheral T-cell counts of female rats was determined (see lymphopenia measurements in rats above). In these lymphopenia studies, blood samples were collected onto EDTA at intervals after the final study dose. The collection times were not identical for each study, however, all studies included a sample collected 24 hours after the final dose. The lymphopenia data was used as a biomarker to select equally pharmacologically active doses for the subsequent toxicology study. […] The high dose in the toxicology study represented a ≧20-fold increment over the low dose.
The dose producing a 10% increase in lung to body weight ratio was interpolated from a plot of dose versus lung to body weight. The lymphopenia response was measured 24 hours following the final dose of a 3-5 day multiple dose regimen.

SMILES	Mouse Lymphopenia (AUEC) [1]	Dose Producing 50% lymphopenia [2] [mg/kg]
CC(C)Oc1ccc(-c2nc(-c3cccc4c3CC[C@@H]4NCC(=O)N(C)C)no2)cc1C#N [Compound 91, (S)-2-(4-(5-(3-cyano-4-isopropoxyphenyl)-1,2,4-oxadiazol-3-yl)-2,3-dihydro-1H-inden-1-ylamino)-N,N-dimethylacetamide]	1408	0.30
CC(C)Oc1ccc(-c2nc(-c3cccc4c3CC[C@@H]4N)no2)cc1C#N [Compound 50, (S)-5-(3-(1-amino-2,3-dihydro-1H-inden-4-yl)-1,2,4-oxadiazol-5-yl)-2-isopropoxy-benzonitrile]	1632	0.10
CC(C)Oc1ccc(-c2nc(-c3cccc4c3CC[C@H]4NCCO)no2)cc1C#N [Compound 85, (R)-5-(3-(1-(2-hydroxyethylamino)-2,3-dihydro-1H-inden-4-yl)-1,2,4-oxadiazol-5-yl)-2-isopropoxybenzonitrile]	1425	0.15
CC(C)Oc1ccc(-c2nc(-c3cccc4c3CC[C@H]4N)no2)cc1C#N [Compound 49, (R)-5-(3-(1-amino-2,3-dihydro-1H-inden-4-yl)-1,2,4-oxadiazol-5-yl)-2-isopropoxy-benzonitrile hydrochloride]	1762	0.10
CC(C)Oc1ccc(-c2nc(-c3cccc4c3CC[C@H]4NCC(=O)N(C)C)no2)cc1C#N [Compound 90, (R)-2-(4-(5-(3-cyano-4-isopropoxyphenyl)-1,2,4-oxadiazol-3-yl)-2,3-dihydro-1H-inden-1-ylamino)-N,N-dimethylacetamide hydrochloride]	1486	0.40
